Measurements as given in PMC5978884, “Dissection of the antimicrobial and hemolytic activity of Cap18: Generation of Cap18 derivatives with enhanced specificity” (PLoS ONE, 2018).
Where no end group is shown, it is not given here.

What was measured:
[1] = system: Aeromonas salmonicida ATCC33658; test: microbe, parasite or virus in culture; assay type: cell-based; conditions: ATCC33658
Procedure: (§1) All strains were grown in Mueller-Hinton-II medium, except L. monocytogenes which was grown in BHI medium and L. lactis which was grown in MRS medium. Incubation took place aerobically at 37°C, except for Y. ruckeri and A. salmonicida, which were grown aerobically at RT (20 °C), and L. lactis grown aerobically at 30°C. All plates were incubated for 16–21 hours.
(§2) The minimum inhibitory concentrations (MICs) of the AMPs were measured in 96-well microtiter plates according the Clinical and Laboratory Standards Institute (CLSI, formerly National Committee for Clinical Laboratory Standards [NCCLS]). Briefly, liquid Mueller-Hinton-II medium containing increasing concentrations of AMPs is inoculated with a defined number of cells (approx. 10^5 CFUs/ml) in 96-well microtiter plates (polypropylene), whereas each plate also includes a positive growth control and a negative control (sterile control). The range of peptide concentrations analyzed was 0.125–64 μg/ml for the high purity peptides and 0.06–32 μg/ml for peptides of the variant library. After incubation, the MIC is determined by the lowest concentration showing no visible growth. All plates were incubated for 16–20 hours. The MIC of the reference antibiotics was determined by the use of Sensititre panels (Trek Diagnostic Systems Ltd, East Grinstead, UK).

[2] = system: all the tested bacterial species including Gram-positive and Gram-negative bacteria
Procedure: as §2, with “The range of peptide concentrations analyzed was 0.125–64 μg/ml for the high purity peptides and 0.06–32 μg/ml for peptides of the variant library.” left out
To identify Cap18 variant peptides with changed species specificity, the antimicrobial screening data of Y. ruckeri, A. salmonicida, S. Typhimurium and L. lactis was compared.
In addition, three Cap18 derivatives harboring either a I13F, I13M or G26T substitution were ordered as positive controls. […] The antimicrobial activity of the highly pure peptides was determined by measuring the MIC value of each derivative against the four test strains Y. ruckeri, A. salmonicida, S.Typhimurium and L. lactis (Table 6). […] In addition to the additional screening strains, a wider range of relevant pathogens including Gram-positive and Gram-negative bacteria was analyzed for targeted antimicrobial activity.

[3] = system: Listeria monocytogenes N22-2; assay type: cell-based
Procedure: as §1, §2

[4] = system: Enterococcus faecalis ATCC29212; assay type: cell-based
Procedure: as §1, §2

[5] = system: Pseudomonas aeruginosa ATCC27853; assay type: cell-based
Procedure: as §1, §2

[6] = system: Lactococcus lactis IL1403; assay type: cell-based
Procedure: as §1, §2

[7] = system: Yersinia ruckeri 392/2003; test: microbe, parasite or virus in culture; assay type: cell-based
Procedure: as §1, §2

[8] = system: Salmonella enterica serovar Typhimurium LT2; test: microbe, parasite or virus in culture; assay type: cell-based; conditions: LT2
Procedure: as §1, §2

[9] = system: Escherichia coli ATCC25922; assay type: cell-based
Procedure: as §1, §2

MIC A. salmonicida ATCC33658 [1] [µg/mL]	MIC against all the tested bacterial species [2] [µg/mL]	MIC L. monocytogenes N22-2 [3] [µg/mL]	MIC E. faecalis ATCC29212 [4] [µg/mL]	MIC P. aeruginosa ATCC27853 [5] [µg/mL]	MIC L. lactis IL1403 [6] [µg/mL]	MIC Y. ruckeri [7] [µg/mL]	MIC Y. ruckeri 392/2003 [7] [µg/mL]	MIC S. Typhimurium [8] [µg/mL]	MIC S. Typhimurium LT2 [8] [µg/mL]	MIC A. salmonicida [1] [µg/mL]	MIC E. coli ATCC25922 [9] [µg/mL]	MIC L. lactis [6] [µg/mL]	Sequence
≥64	≥ 32	≥64	≥64	≥64	≥64	–	–	–	–	–	–	–	GLRKRLRKFRNKIKEKDKKIGQKIQGLLPKLAPRTDY [Peptide 16]
8	–	32	≥64	16	≥64	16	32	4	8 to 16	8	≥64	–	GLRKRLRKFRNKIKEKLKKIGQKGQGLLPKLAPRTDY [Peptide 27]
16	–	32	≥64	8	32	16	32	4	8	16	≥64	–	GLRKRLRKFRNKIKEKLKKIGQKIQGPLPKLAPRTDY [Peptide 31]
4	–	4	8	8	2	–	2 to 4	–	4 to 8	–	4 to 8	–	GLRKRLRKFRNKIKEKLKKIGQKIQTLLPKLAPRTDY [Peptide 30]
–	≥ 32	32	–	–	–	–	–	–	32	–	–	–	GLRKRLRKFRNKIKEKLKKIGQKNQGLLPKLAPRTDY [Peptide 28]
8	–	16 to 32	≥64	8 to 16	32	16	16	4	8	8	32 to 64	–	GLRKRLRKFRNKIKEKLKKIGQKSQGLLPKLAPRTDY [Peptide 29]
16	–	16	16	16	≥64	4	16	8	16	4	16	–	GLRKRLRKFRNKIKEKLKKILQKIQGLLPKLAPRTDY [Peptide 24]
16	–	16 to 32	≥64	8 to 16	≥64	16	≥64	4	8 to 16	4	≥64	–	GLRKRLRKFRNKIKEKLKKNGQKIQGLLPKLAPRTDY [Peptide 22]
2 to 4	–	32 to 64	≥64	16	32	–	32	4	4	2	8 to 16	–	GLRKRLRKFRNKIKEKLPKIGQKIQGLLPKLAPRTDY [Peptide 19]
16	–	8 to 16	16	16	≥64	8	8 to 16	8	16	4	16	–	GLRKRLRKFRNKIKEYLKKIGQKIQGLLPKLAPRTDY [Peptide 15]

The remaining lines, values behind:

Sequence	MIC A. salmonicida ATCC33658 [1] [µg/mL]	MIC against all the tested bacterial species [2] [µg/mL]	MIC L. monocytogenes N22-2 [3] [µg/mL]	MIC E. faecalis ATCC29212 [4] [µg/mL]	MIC P. aeruginosa ATCC27853 [5] [µg/mL]	MIC L. lactis IL1403 [6] [µg/mL]	MIC Y. ruckeri [7] [µg/mL]	MIC Y. ruckeri 392/2003 [7] [µg/mL]	MIC S. Typhimurium [8] [µg/mL]	MIC S. Typhimurium LT2 [8] [µg/mL]	MIC A. salmonicida [1] [µg/mL]	MIC E. coli ATCC25922 [9] [µg/mL]	MIC L. lactis [6] [µg/mL]
GLRKRLRKFRNKIKEKPKKIGQKIQGLLPKLAPRTDY [Peptide 18]	≥64	≥ 32	≥64	≥64	≥64	≥64	–	–	–	≥64	–	≥64	–
GLRKRLRKFRNKIKELLKKIGQKIQGLLPKLAPRTDY [Peptide 13]	16	–	8 to 16	16	16 to 32	≥64	4	16	4	16	4	16	–
GLRKRLRKFRNKIKEMLKKIGQKIQGLLPKLAPRTDY [Peptide 14]	8 to 16	–	16	32	16 to 32	≥64	4	8 to 16	4	16	4	16	–
GLRKRLRKFRNKMKEKLKKIGQKIQGLLPKLAPRTDY [Peptide 6]	4	–	4	8 to 16	8 to 16	2	–	4	–	8	–	8 to 16	–
GLRKRLRKFRNKQKEKLKKIGQKIQGLLPKLAPRTDY [Peptide 7]	8	–	16	32	8	≥64	–	8	4	4 to 8	4	16 to 32	–
GLRKRLRKFRNKSKEKLKKIGQKIQGLLPKLAPRTDY [Peptide 8]	4	–	32	≥64	8 to 16	≥64	–	8 to 16	4	8	2	16	8
GLRKRPRKFRNKIKEKLKKIGQKIQGLLPKLAPRTDY [Peptide 1]	8 to 16	–	32	32	≥64	≥64	–	64	4	8	8	8	8
